Reference: US9896482B2, “Beta hairpin peptides having antiviral properties against Dengue virus” (CENTRO DE INGENIERÍA GENÉTICA Y BIOTECNOLOGÍA, priority 2014, dated 2018)
Like-named read-outs stand apart in the source and are kept apart here. Marks after values point to notes of the source that are not given here. Where a SMILES comes first, the peptide text is derived from it. Bridges are numbered along the chain shown (N, C = ends). [ ]: non-standard residue; d: D form.

Experiments:
[1] = test system: DENV 4 (NIBSC code TVP360); assay: Plaque reduction assay in Vero cells, DENV4; type: cell-based, Dengue virus; details: m.o.i. 0.001, read-out: Antiviral activity IC50 vs DENV4
Method: The cells were grown in 24 well plates until the monolayer reached approximately 90% confluence, after which they were washed twice with MEM medium without Fetal Bovine Serum (FBS). Then, peptide dilutions were added and the cell-peptide mixtures were incubated typically for 1 hour at 37° C., followed by the addition of a DENV serotype 2 preparation (NIBSC code S16803) at a multiplicity of infection (m.o.i.) of 0.001. The cells were then incubated for 1 hour at 37° C., and once the period of incubation with the viral inoculum concluded, were washed again to remove unbound virions and incubated for 5 days at 37° C. in high density medium (MEM supplemented with non-essential amino acids, 1% FBS, 1% carboxymethylcellulose) in order to let viral plaques form. Afterwards, the cells were stained with 0.1% Naphtol Blue Black in 0.15 M sodium acetate. Two replicates per experimental point were used in each assay, and three independent determinations were performed for each sample.
Next, it was decided to compare the antiviral activity of peptides PHB4 and HDIII3CL against all four DENV serotypes, with the objective of comparing their respective IC50 values. […]

DENV1 = assay: In vivo protection assay, intracranial challenge, DENV1; design: species or system Balb/c mice; details: 30 μg peptide inoculated intracranially with 10 median lethal doses, 21 days
Method: (§1) An experiment was set up to evaluate the in vivo antiviral activity of peptide PHB4 and compare it to that of peptide HDIII3CL. For this purpose, groups of 12 adult Balb/c mice (20 g average body weight) were anesthetized by ether inhalation and inoculated intracranially with 20 μL of viral preparations containing 10 times the median lethal dose of this model and the peptide to be evaluated. The animals recovered quickly and already appeared alert five minutes after the treatment, and were monitored afterwards for 21 days. The data were evaluated using the Kaplan-Meier logarithmic rank test.

DENV3 = assay: In vivo protection assay, intracranial challenge, DENV3; design: species or system Balb/c mice; details: 30 μg peptide, morbidity evaluated instead of lethality
Method: as §1

DENV2 = assay: In vivo protection assay, intracranial challenge, DENV2; design: species or system Balb/c mice; details: 30 μg peptide inoculated intracranially with 10 median lethal doses, 21 days
Method: as §1

DENV2 strain S16803 = test system: DENV2 strain S16803
Method: The antiviral activity of peptide PHB4 was evaluated after treatments facilitating its aggregation or in the presence of different agents that modulate aggregation, with the purpose of examining their effect on the inhibitory activity of this peptide for the infection of Huh7.5 cells with DENV2 strain S16803. Huh7.5, a human hepatoma-derived cell line, was selected not only because it is permissive for DENV2, but because of its relevance as an experimental system from the viewpoint of DENV pathogenesis (Lin Y L, et al. (2000) J Med Virol.; 60(4):425-31).
Antiviral activity was evaluated in virus yield assays, in which 80-90% confluent Huh7.5 monolayers were washed twice with non-supplemented DMEM and then infected at a m.o.i of 0.01 for 2 h at 37° C. and 5% CO2 in the presence of the different peptide preparations, after which the viral inoculum was removed by washing with non-supplemented DMEM, and the cells were grown in DMEM supplemented with 2% FBS. Cell supernatants were collected at 24 h p.i., and virus yields were determined by titrating the supernatant in a plaque formation assay (Morens D. M., et al. (1985). N. J. Clin. Microbiology; 22: 250-254).
Therefore, a first series of assays was set up in which, starting from a 20 μM solution of the peptide in water, dilutions were prepared in MEM spanning the 10-0.01 μM concentration range, which were then incubated in parallel at 10° C. and 37° C. for 2 hours and then used in a viral inhibition assay. Non-incubated peptide dilutions (that is, prepared right before the viral inhibition assay) were used as controls.
A second experiment was designed to determine the influence of aggregation time on the antiviral potency of peptide PHB4 (FIG. 18). […] This incubation with HSA was performed in parallel at either 10° C. or 37° C.

sLRP1-CIV = target: T1, sLRP1-CIV (Homo sapiens, UniProt Q07954); assay: Biacore (SPR) binding to immobilized sLRP1-CIV; details: peptides at 20 μM
T1 construct: purchased R&D Systems, USA
Method: The interaction of the beta hairpin peptides with soluble fragments of the LRP1 receptor was studied by Surface Plasmon Resonance (SPR), using a Biacore X unit. In this technique, one of the interaction partners to be studied is immobilized on the surface of a chip, and the other interaction partner is dissolved in a solution that runs through the measurement cell on top of the interaction surface, under conditions of controlled flow. The association and dissociation of interacting partners is measured in resonance units (RU) and plotted, as a function of time, on charts known as ‘sensorgrams’. SPR, therefore, enables the experimenter to obtain detailed information about the interaction without having to label either interaction partner.
In this example, one channel of a CM5 chip (GE Healthcare, USA) was used to immobilize protein sLRP1-CIV on its surface at high density (see Table 6) and recombinant Human Serum Albumin (rHSA, Sigma-Aldrich, USA) was immobilized on the other channel.
Although it was decided to immobilize sLRP1-CIV at high density because these conditions make easier the detection of any potential interactions with compounds whose molecular weight is lower than that of average proteins (such as the peptides this experiment is intended to study), it must be stressed that in high-density surfaces, mass transfer limitations and the possibility of multivalent binding make difficult the accurate determination of kinetic constants. Therefore, and in order to characterize in greater detail the sLRP1-CIV binding surface, different RAP dilutions (0.6-20 μM) were loaded, and RU were registered under conditions of interaction equilibria (250 sec, see FIG. 13B). […] The data also indicate that immobilized sLRP1-CIV faithfully reproduces the previously reported characteristics of the LRP1-RAP interaction.
The binding of beta hairpin peptides to sLRP1-CIV was studied by loading 20 μM dilutions in running buffer of the different peptide variants onto the sLRP1-CIV chip characterized above. The high strength of the resulting signals is consistent with the binding of aggregated, rather than monomeric forms of the peptides. Therefore, the observed variations between different peptides may reflect either differences in the affinity of unitary peptide interactions or differences in aggregation numbers and/or geometries that lead to variations in the number of peptide units able to simultaneously engage immobilized sLRP1-CIV molecules in a multivalent manner. […] The difference between peptides HDIII3CL2 and HDIII3CL is that the former has an additional C-terminal lysine and has, therefore, a stronger cationic character, which may facilitate additional electrostatic interactions with the negatively charged LRP1 receptor.

CC[C@H](C)[C@@H]1NC(=O)[C@H](Cc2ccccc2)NC(=O)[C@H](Cc2c[nH]c3ccccc23)NC(=O)[C@H](CC(N)=O)NC(=O)[C@H](C(C)C)NC(=O)[C@H](CCCCN)NC(=O)[C@H](Cc2c[nH]c3ccccc23)NC(=O)[C@H](CCCCN)NC(=O)[C@H]2CCCN2C(=O)[C@H](CCCNC(=N)N)NC(=O)[C@H]([C@@H](C)O)NC(=O)[C@H](Cc2c[nH]c3ccccc23)NC(=O)[C@H](Cc2ccc(O)cc2)NC(=O)[C@H](C(C)C)NC(=O)[C@H](CCC(=O)O)NC(=O)[C@H]([C@@H](C)CC)NC(=O)[C@@H](N)CSSC[C@@H](C(=O)N[C@@H](CCCCN)C(=O)N[C@@H](CCCCN)C(=O)N[C@@H](CCCCN)C(N)=O)NC1=O [PHB4] (H-CIEVYWTR[dP]KWKVNWFICKKK-NH2; disulfide 1-18; N-terminus assumed)
IC50 [1]: 10 nM | Protection (%) DENV1 (DENV1): 100*** % | Protection (%) DENV3 (DENV3): 100*** % | Protection (%) DENV2 (DENV2): 100*** % | Variation in potency with incubation temperature (DENV2 strain S16803; 10° C. vs 37° C. pre-incubation): 24 fold | IC100 (DENV2 strain S16803; Huh7.5 cells, non-incubated peptide in MEM): 10 µM | IC50 (DENV2 strain S16803; read-out: IC50, 2 hrs-10° C., Huh7.5 cells, peptide pre-incubated in MEM 2 h at 10° C.): 37 nM | IC50 (DENV2 strain S16803; read-out: IC50, 2 hrs-37° C., Huh7.5 cells, peptide pre-incubated in MEM 2 h at 37° C.): 890 nM | IC50 (DENV2 strain S16803; read-out: IC50, no incubation, Huh7.5 cells, peptide dissolved in MEM, non-incubated): 160 nM | Binding to sLRP1-CIV by SPR, in words (sLRP1-CIV): strongest binding
